Results taken from patent US10131647B2, “Chromene derivatives substituted by alkoxide as inhibitors of the TCR-Nck interaction” (ARTAX BIOPHARMA INC., priority 2013, dated 2018).
Where two headings read alike, the source gives them in different places. Blank lines part the entries; values can stand above or below the compound they belong to.

How the values were obtained:
[1] = Pharmacokinetics after intravenous bolus and oral gavage; assay type: in vivo, Swiss albino mice; details: for F: 50 mg/kg vs IV 5 mg/kg
[2] = test system: chronic EAE induced by MOG35-55 peptide; assay: In vivo test on model of chronic EAE (Experimental Autoimmune Encephalomyelitis); parameters: species or system C57BL/6 female mice
[3] = IV, 5 mg/kg, Swiss albino mice, mean
[4] = PO, 50 mg/kg, Swiss albino mice, mean
[5] = oral, first 10 days from immunization, versus placebo group
[6] = mouse, in vivo, IV (5 mg/kg), Swiss albino mice, mean
[7] = mouse, in vivo, PO (50 mg/kg), Swiss albino mice, mean

AUCint [1, 3]: 840.27 ng·h/mL | AUClast [1, 3]: 838.43 ng·h/mL | CL [1, 3]: 99.17 mL/min/kg | Cmax [1, 3]: 1168.89 ng/mL | T1/2 [1, 3]: 3.36 h | Vss [1, 3]: 11.37 L/kg | F ([1]; PO, Swiss albino mice): 4 | AUCint [1, 4]: 299.69 ng·h/mL | AUClast [1, 4]: 297.03 ng·h/mL | Cmax [1, 4]: 171.56 ng/mL | T1/2 [1, 4]: 4.93 h | Tmax [1, 4]: 0.25 h
SMILES: COc1ccc2c(c1)C(c1ccc(F)cc1)=C(CN1CCCC1)CO2 [ECRA-24]

F ([1]; PO, Swiss albino mice): 24 | bioavailability ([1]; Swiss albino, mouse, in vivo, 50 mg/kg, oral gavage vs intravenous bolus, text says rats, n=3, read-out: total bioavailability after oral administration): 24% | AUC(0-inf) [1, 6]: 750 ng·h/mL | AUC(0-t) [1, 6]: 724 ng·h/mL | clearance [1, 6]: 111 mL/min/kg | half-life [1, 6]: 8.45 h | Cmax ([1]; mouse, in vivo, IV (5 mg/kg), Swiss albino mice, mean, read-out: Cmax): 1280 ng/mL | Vd ([1]; mouse, in vivo, IV (5 mg/kg), Swiss albino mice, mean, read-out: Vss): 20.6 L/kg | AUC(0-inf) [1, 7]: 1790 ng·h/mL | AUC(0-t) [1, 7]: 1760 ng·h/mL | Cmax ([1]; mouse, in vivo, PO (50 mg/kg), Swiss albino mice, mean, read-out: Cmax): 930 ng/mL | Tmax ([1]; mouse, in vivo, PO (50 mg/kg), Swiss albino mice, mean, read-out: Tmax): 0.25 h
SMILES: Fc1ccc(C2=C(CN3CCCC3)COc3ccc(OCC4CC4)cc32)cc1 [AX-104, 1-((6-(cyclopropylmethoxy)-4-(4-fluorophenyl)-2H-chromen-3-yl)methyl)pyrrolidine]
clinical score of the disease (scale 0-6), FIG. 2 [2, 5]: reduced score when compared to the placebo group | weight of the animals (weight loss), FIG. 3 [2, 5]: weight loss significantly reduced | impact of the symptoms associated to the model ([2]; overall results of the EAE study): significantly reducing the impact of the symptoms
